# Reference: ChEMBL document CHEMBL3228022, “Synthesis of 2,3,4,4a,5,9b-hexahydro-1H-pyrido[4,3-b]indole derivatives and their central nervous system activities” (1979)
# Active and inactive are the calls of the source. No cut-off for these calls is given here.
# Legend:
# [1] = tested on: Rattus norvegicus; assay: Neuroleptic activity in Wistar HLA rat assessed as inhibition of methamphetamine-induced stereotyped behavior at 5 mg/kg, ip administered 20 mins before methamphetamine challenge measured every 30 mins for 3 hrs followed by every 1 hr for further 3 hrs; assay type: functional; set-up: Activity: scale not given: the % may be the effect or the level left; conditions: route intraperitoneal; for inhibition in vivo at 5 mg/kg: Rattus norvegicus, Wistar HLA, ip
# [2] = tested on: Rattus norvegicus; assay: Neuroleptic activity in Wistar HLA rat assessed as inhibition of methamphetamine-induced stereotyped behavior at 2 mg/kg, ip administered 20 mins before methamphetamine challenge measured every 30 mins for 3 hrs followed by every 1 hr for further 3 hrs; assay type: functional; set-up: Activity: scale not given: the % may be the effect or the level left; conditions: route intraperitoneal
# [3] = tested on: Mus musculus; assay: Neuroleptic activity in STD-ddy mouse assessed as inhibition of locomotion at 10 mg/kg, po measured for 3 mins; assay type: functional; conditions: 0.05 h
# [4] = tested on: Rattus norvegicus; assay: Neuroleptic activity in Wistar HLA rat assessed as inhibition of methamphetamine-induced stereotyped behavior at 1 mg/kg, ip administered 20 mins before methamphetamine challenge measured every 30 mins for 3 hrs followed by every 1 hr for further 3 hrs; assay type: functional; set-up: Activity: scale not given: the % may be the effect or the level left; conditions: route intraperitoneal
# [5] = tested on: Rattus norvegicus; assay: Neuroleptic activity in Wistar HLA rat assessed as inhibition of methamphetamine-induced stereotyped behavior at 10 mg/kg, ip administered 20 mins before methamphetamine challenge measured every 30 mins for 3 hrs followed by every 1 hr for further 3 hrs; assay type: functional; set-up: Activity: scale not given: the % may be the effect or the level left; conditions: route intraperitoneal; for inhibition in vivo at 10 mg/kg: Rattus norvegicus, Wistar HLA, ip
# [6] = tested on: Mus musculus; assay: Neuroleptic activity in STD-ddy mouse assessed as inhibition of locomotion at 100 mg/kg, po measured for 3 mins; assay type: functional; conditions: 0.05 h
# [7] = tested on: Mus musculus; assay: Neuroleptic activity in po dosed STD-ddy mouse assessed as catalepsy measured up to 30 secs; assay type: functional
# [8] = tested on: Mus musculus; assay: Neuroleptic activity in po dosed STD-ddy mouse assessed as inhibition of methamphetamine-induced stereotyped behavior administered 100 mins before methamphetamine challenge measured for 20 mins; assay type: functional
# [9] = tested on: Mus musculus; assay: Neuroleptic activity in STD-ddy mouse assessed as catalepsy at 100 mg/kg, po measured up to 30 secs; assay type: functional, organism-based; set-up: dose 100 mg/kg
# [10] = tested on: Mus musculus; assay: Neuroleptic activity in po dosed STD-ddy mouse assessed as inhibition of locomotion measured for 3 mins; assay type: functional; conditions: 0.05 h
# [11] = tested on: Rattus norvegicus; assay: Neuroleptic activity in sc dosed Wistar HLA rat assessed as inhibition of apomorphine-induced gnawing administered 1 hr before apomorphine challenge measured 5 to 20 mins; assay type: functional
# [12] = tested on: Mus musculus; assay: Neuroleptic activity in STD-ddy mouse assessed as muscle relaxation at 100 mg/kg, po after 20 mins; assay type: functional, organism-based; set-up: dose 100 mg/kg
# [13] = tested on: Mus musculus; assay: Neuroleptic activity in po dosed STD-ddy mouse assessed as inhibition of active avoidance; assay type: functional
# [14] = tested on: Rattus norvegicus; assay: Neuroleptic activity in ip dosed Wistar HLA rat assessed as inhibition of intracranial self-stimulation measured for 1 to 24 hrs; assay type: functional
# [15] = tested on: Rattus norvegicus; assay: Neuroleptic activity in po dosed Wistar HLA rat assessed as inhibition of intracranial self-stimulation measured for 1 to 24 hrs; assay type: functional
# [16] = tested on: Rattus norvegicus; assay: Neuroleptic activity in Wistar HLA rat assessed as stimulation of methamphetamine-induced stereotyped behavior at 10 mg/kg, ip administered 20 mins before methamphetamine challenge measured every 30 mins for 3 hrs followed by every 1 hr for further 3 hrs; assay type: functional; conditions: route intraperitoneal
# [17] = tested on: Rattus norvegicus; assay: Neuroleptic activity in Wistar HLA rat assessed as stimulation of methamphetamine-induced stereotyped behavior at 5 mg/kg, ip administered 20 mins before methamphetamine challenge measured every 30 mins for 3 hrs followed by every 1 hr for further 3 hrs; assay type: functional; conditions: route intraperitoneal
# [18] = tested on: Rattus norvegicus; assay: Neuroleptic activity in Wistar HLA rat assessed as stimulation of methamphetamine-induced stereotyped behavior at 2 mg/kg, ip administered 20 mins before methamphetamine challenge measured every 30 mins for 3 hrs followed by every 1 hr for further 3 hrs; assay type: functional; conditions: route intraperitoneal
# [19] = tested on: Rattus norvegicus; assay: Neuroleptic activity in Wistar HLA rat assessed as inhibition of methamphetamine-induced stereotyped behavior at 0.1 mg/kg, ip administered 20 mins before methamphetamine challenge measured every 30 mins for 3 hrs followed by every 1 hr for further 3 hrs; assay type: functional; set-up: scale not given: the % may be the effect or the level left; conditions: route intraperitoneal
# [20] = tested on: Rattus norvegicus; assay: Neuroleptic activity in Wistar HLA rat assessed as inhibition of methamphetamine-induced stereotyped behavior at 0.2 mg/kg, ip administered 20 mins before methamphetamine challenge measured every 30 mins for 3 hrs followed by every 1 hr for further 3 hrs; assay type: functional; set-up: scale not given: the % may be the effect or the level left; conditions: route intraperitoneal
# [21] = tested on: Rattus norvegicus; assay: Neuroleptic activity in Wistar HLA rat assessed as inhibition of methamphetamine-induced stereotyped behavior at 0.5 mg/kg, ip administered 20 mins before methamphetamine challenge measured every 30 mins for 3 hrs followed by every 1 hr for further 3 hrs; assay type: functional; set-up: scale not given: the % may be the effect or the level left; conditions: route intraperitoneal
# [22] = Rattus norvegicus, Wistar HLA, ip
SMILES,inhibition in vivo at 10 mg/kg [3],Activity [4],inhibition in vivo at 100 mg/kg [6],Activity [9],Activity [12],further results
Cl.O=C(CCCN1CC[C@H]2Nc3ccccc3[C@H]2C1)c1ccc(F)cc1 (relative stereo),-6%,0%,77.7%,–,–,Activity [1]: 0%; Activity [2]: 0%; inhibition in vivo at 10 mg/kg [5]: 25%
CN(C)CCCN1c2ccccc2Sc2ccc(Cl)cc21 [CHLORPROMAZINE],67.6%,–,97.4%,Active,Active,ED50 [7]: 9.97 mg/kg; ED50 [8]: 13.3 mg/kg; ED50 [10]: 7.42 mg/kg; ED50 [11]: 3.25 mg/kg; Activity [1]: 50%; Activity [2]: 0%; ED50 [13]: 5.59 mg/kg; ED50 [14]: 2.1 mg/kg; inhibition in vivo at 10 mg/kg [5]: > 75%
Cc1ccc2c(c1)[C@H]1CN(CCCC(c3ccc(F)cc3)c3ccc(F)cc3)CC[C@H]1N2 (relative stereo),-73%,–,90.7%,–,inactive,–
Fc1ccc2c(c1)[C@H]1CN(Cc3ccccc3)CC[C@@H]1N2 (relative stereo),–,–,76.1%,inactive,inactive,–
Cc1ccc2[nH]c3c(c2c1)CN(CCCC(=O)c1ccc(F)cc1)CC3.Cl,–,0%,–,–,–,Activity [1]: 0%; Activity [2]: 0%; Activity [5]: 0%
CC(=O)N1c2ccc(C)cc2[C@H]2CN(CCCC(=O)c3ccc(F)cc3)CC[C@H]21 (relative stereo),–,–,21.7%,inactive,inactive,–
Cc1ccc2c(c1)[C@H]1CN(CCCC(=O)c3ccc(F)cc3)CC[C@@H]1N2C.O=C(O)/C=C\C(=O)O (relative stereo),–,–,97.4%,Active,–,ED50 [7]: 55.9 mg/kg; ED50 [15]: 8.44 mg/kg; ED50 [10]: 14.5 mg/kg; ED50 [13]: 11.5 mg/kg
Cc1ccc2c(c1)[C@H]1CN(CCCC(=O)c3ccc(F)cc3)CC[C@H]1N2C.Cl (relative stereo),55.8%,0%,95.8%,Active,–,ED50 [7]: 40.3 mg/kg; Activity [16]: 50%; ED50 [15]: 30 mg/kg; ED50 [10]: 10.2 mg/kg; Activity [2]: 0%; ED50 [13]: 20.1 mg/kg; Activity [17]: 50%
Cc1ccc2c(c1)[C@H]1CN(Cc3ccccc3)CC[C@H]1N2 (relative stereo),–,–,35.3%,inactive,inactive,–
CC(=O)CCN1CC[C@H]2Nc3ccc(C)cc3[C@H]2C1 (relative stereo),–,–,38.8%,inactive,inactive,–
CN1c2ccc(F)cc2[C@H]2CN(CCCC(=O)c3ccc(F)cc3)CC[C@@H]21.O=C(O)/C=C\C(=O)O (relative stereo),–,–,92.7%,–,–,ED50 [7]: 30.7 mg/kg; ED50 [15]: 7.37 mg/kg; ED50 [10]: 12.8 mg/kg; ED50 [13]: 4.58 mg/kg
Cl.O=C(CCCN1CC[C@@H]2Nc3ccc(F)cc3[C@H]2C1)c1ccc(F)cc1 (relative stereo),–,–,92.2%,–,–,ED50 [7]: 8.08 mg/kg; ED50 [15]: 4.54 mg/kg; ED50 [10]: 7.12 mg/kg; ED50 [13]: 5.19 mg/kg
Cc1ccc2c(c1)[C@H]1CN(CCO)CC[C@H]1N2 (relative stereo),–,–,30.7%,inactive,inactive,–
Cc1ccc2c(c1)[C@H]1CN(CCCN3c4ccccc4Sc4cc(Cl)ccc43)CC[C@H]1N2.Cl (relative stereo),56.6%,0%,96.9%,–,inactive,Activity [1]: 0%; Activity [2]: 0%; Activity [5]: 0%
Cl.O=C(CCCN1CC[C@H]2Nc3ccc(F)cc3[C@H]2C1)c1ccc(F)cc1 (relative stereo),47.2%,0%,91.2%,–,–,inhibition in vivo at 5 mg/kg [1]: 25%; Activity [2]: 0%; inhibition in vivo at 10 mg/kg [5]: 50%
CCN1c2ccc(C)cc2[C@H]2CN(CCCC(=O)c3ccc(F)cc3)CC[C@H]21.Cl (relative stereo),34%,0%,92.9%,Active,Active,Activity [16]: >75%; Activity [2]: 0%; Activity [17]: >75%
Cc1ccc2c(c1)[C@H]1CN(CCCN(C)C)CC[C@H]1N2 (relative stereo),–,–,12.3%,inactive,inactive,–
CCN1CC[C@H]2Nc3ccc(C)cc3[C@H]2C1 (mixture of isomers),–,–,54.7%,inactive,–,–
Cc1ccc2c(c1)[C@H]1CN(C)CC[C@H]1N2 (relative stereo) [STOBADINE],–,0%,37.6%,inactive,inactive,ED50 [7]: > 150 mg/kg; Activity [16]: >75%; ED50 [15]: > 100 mg/kg; Activity [18]: 25%; ED50 [8]: > 100 mg/kg; ED50 [10]: 150 mg/kg; ED50 [11]: > 100 mg/kg; Activity [17]: 50%
Cc1ccc2c(c1)[C@H]1CN(CCO)CC[C@@H]1N2 (relative stereo),–,–,-5.6%,inactive,inactive,–
Cc1ccc2c(c1)[C@H]1CN(C)CC[C@@H]1N2 (relative stereo),–,–,79.7%,inactive,inactive,–
CCc1ccc2c(c1)[C@H]1CN(CCCC(=O)c3ccc(F)cc3)CC[C@H]1N2.Cl (relative stereo),–,–,44%,inactive,inactive,Activity [16]: >75%; Activity [18]: 25%; Activity [17]: >75%
CC(=O)CCN1CC[C@@H]2Nc3ccc(C)cc3[C@H]2C1 (relative stereo),–,–,-15.5%,–,inactive,–
Cc1ccc2c(c1)[C@H]1CN(CCCC(=O)c3ccc(F)cc3)CC[C@@H]1N2.Cl (relative stereo),–,25%,86.5%,–,–,"ED50 [7]: 7.18 mg/kg; ED50 [15]: 6.28 mg/kg; ED50 [10]: 9.73 mg/kg; inhibition in vivo at 5 mg/kg [1]: > 75%; inhibition in vivo at 2 mg/kg [2, 22]: 50%; ED50 [13]: 9.73 mg/kg; inhibition in vivo at 10 mg/kg [5]: > 75%"
Cc1ccc2c(c1)[C@H]1CN(CCCC(=O)c3ccc(F)cc3)CC[C@H]1N2.Cl (relative stereo),75.9%,0%,97.8%,Active,Active,ED50 [7]: 15.3 mg/kg; Activity [16]: 50%; Activity [18]: 50%; ED50 [8]: 23.8 mg/kg; ED50 [10]: 9.3 mg/kg; ED50 [11]: 16.5 mg/kg; ED50 [13]: 10 mg/kg; Activity [17]: >75%
COc1ccc2c(c1)[C@H]1CN(CCCC(=O)c3ccc(F)cc3)CC[C@H]1N2.Cl (relative stereo),61.7%,0%,96.7%,–,Active,Activity [1]: 0%; Activity [2]: 0%; inhibition in vivo at 10 mg/kg [5]: 25%
Cc1ccc2c(c1)[C@H]1CN(Cc3ccccc3)CC[C@@H]1N2 (relative stereo),–,–,17.9%,–,inactive,–
O=C(CCCN1CCC(O)(c2ccc(Cl)cc2)CC1)c1ccc(F)cc1 [HALOPERIDOL],–,–,–,–,–,"Activity [19]: 0%; Activity [20]: 25%; inhibition in vivo at 1 mg/kg [4, 22]: > 75%; Activity [21]: >75%"
Cc1ccc2c(c1)[C@H]1CN(CC(=O)c3ccccc3)CC[C@H]1N2 (relative stereo),–,–,29.8%,inactive,inactive,–
